US11427869B2, “T cell balance gene expression, compositions of matters and methods of use thereof” (THE BROAD INSTITUTE, INC., priority 2015, dated 2022)

System: Th17 cells
Assay: Flow cytometry and intracellular cytokine staining of T cells
Type: cell-based, mouse
Description: WT, CD5L−/− and Rorγt−/− Th17 cells were differentiated with TGF-1+IL-6 for 96h. […] Three independent experiments were performed. […] (FIG. 18E) Naïve WT T cells were activated without polarizing cytokines (Th0) and infected with retrovirus expressing Rorγt in the presence of control-RV or CD5L-RV with or without FF-MAS (5 uM) as a source of Rorγt ligand. Each dot represents an independent infection. (FIG. 18F) WT or CD5L−/− naïve cells were differentiated with TGF-β1+IL-6. At 48h, cells were replated in fresh media with either control or FF-MAS (5 uM) as a source of Rorγt ligand. Cells were harvested for FACS analysis 72h later.
T cell differentiation culture. Naïve CD4+CD44−CD62L+CD25− T cells or Effector memory CD4+CD44+CD62L− were sorted using BD FACSAria sorter and activated with plate-bound anti-CD3 and anti-CD28 antibodies (both at 2 μg/ml) in the presence of cytokines at a concentration of 2.5×10^5 cells/ml. For Th17 differentiation: 2 ng/ml of rhTGFβ1, 2 ng/ml of rhTGFβ3, 25 ng/ml rmIL-6, 20 ng/ml rmIL-18 (all from Miltenyi Biotec) and 20 ng/ml rmIL-23 (R & D systems) were used at various combinations as specified in figures. For Th1 differentiation, 20 ng/ml rmIL-12 (R & D systems); for Th2 differentiation 20 ng/ml rmIL-4 (Miltenyi Biotec); for iTreg differentiation, 2.5 ng/ml of rhTGFβ1 were used (Miltenyi Biotec). For differentiation experiments, cells were harvested at 48 hours. For restimulation experiments, cells were differentiated for 48 hours and resuspended in fresh media with no additional cytokines for 48-72 hours. Cells were re-stimulated with PMA/ionomycin for four hours before analysis for cytokines by intracellular cytokine staining. For experiments with exogenous fatty acid, fatty acids were purchased and resuspended first with serum-free media containing BSA prior being added to culture.
Flow cytometry and intracellular cytokine staining. Sorted naïve T cells were stimulated with phorbol 12-myristate 13-acetate (PMA) (50 ng/ml, Sigma-aldrich), ionomycin (1 μg/ml, Sigma-aldrich) and a protein transport inhibitor containing monensin (Golgistop) (BD Biosciences) for 4 h before detection by staining with antibodies.

CC(C)=CCC[C@@H](C)[C@H]1CC=C2C3=C(CC[C@@]21C)[C@@]1(C)CC[C@H](O)C(C)(C)[C@@H]1CC3 [Rorγt ligand, FF-MAS] was tested, and the IL-17 expression (Th0 cells with ectopic Rorγt expression and CD5L-RV, FF-MAS 5 uM) was “partially rescued” and the IL-17 production (non-pathogenic Th17 cells (TGF-β1+IL-6), ligand (FF-MAS 5 uM) added at 48h, FACS 72h later) was “increased IL-17 production”.
